Test results reported in PubChem BioAssay AID1745844 (Carcinogenic Potency Database (CPDB), 2022).
Calls of active or inactive are those of the source. How the calls were made is not given here.

System: rodent lifetime carcinogenesis bioassay, tumor incidence TD50
Assay: chronic cancer bioassays in animals – CPDB, compiled studies (AID 1745844)

With `[Cl][Cd][Cl]` the carcinogen call (hamster, strain Syrian Golden, females, inhaled, site: lung, lesion: one or several types, types not named, dosed 60 weeks, study length 76 weeks) was “negative (inactive)”, the carcinogen call (hamster, strain Syrian Golden, females, inhaled, site: lung, lesion: one or several types, types not named, dosed 64 weeks, study length 76 weeks) was “negative (inactive)” and the carcinogen call (hamster, strain Syrian Golden, males, inhaled, site: lung, lesion: one or several types, types not named, dosed 60 weeks, study length 102 weeks) was “negative (inactive)”. The carcinogen call (hamster, strain Syrian Golden, males, inhaled, site: lung, lesion: one or several types, types not named, dosed 64 weeks, study length 113 weeks) was “negative (inactive)”, the carcinogen call (mouse, strain NMRI, females, inhaled, site: lung, lesion: adenocarcinoma, dosed 42 weeks, study length 82 weeks) was “negative (inactive)” and the carcinogen call (mouse, strain NMRI, females, inhaled, site: lung, lesion: adenocarcinoma, dosed 69 weeks, study length 89 weeks) was “negative (inactive)”. The carcinogen call (mouse, strain NMRI, females, inhaled, site: lung, lesion: adenoma, dosed 42 weeks, study length 82 weeks) was “negative (inactive)”, the carcinogen call (mouse, strain NMRI, females, inhaled, site: lung, lesion: adenoma, dosed 69 weeks, study length 89 weeks) was “negative (inactive)” and the carcinogen call (mouse, strain NMRI, females, inhaled, site: lung, lesion: several types, types named in the paper, dosed 42 weeks, study length 82 weeks) was “negative (inactive)”. For the same compound, the carcinogen call (mouse, strain NMRI, females, inhaled, site: lung, lesion: several types, types named in the paper, dosed 69 weeks, study length 89 weeks) was “negative (inactive)”, the carcinogen call (rat, strain BOR:WISW (Wistar), females, in feed, site: kidney, lesion: one or several types, types not named, dosed 72 weeks, study length 72 weeks) was “negative (inactive)” and the carcinogen call (rat, strain BOR:WISW (Wistar), males, in feed, site: kidney, lesion: one or several types, types not named, dosed 72 weeks, study length 72 weeks) was “negative (inactive)”. The TD50 (rat, strain NBL/Cr, males, in drinking water, site: adrenal gland, lesion: pheochromocytoma, benign/malignant, dosed 102 weeks, study length 102 weeks) was 686 mg/kg/day, the TD50 (rat, strain NBL/Cr, males, in drinking water, site: kidney/pelvis, lesion: transitional-cell carcinoma, dosed 102 weeks, study length 102 weeks) was 584 mg/kg/day and the TD50 (rat, strain NBL/Cr, males, in drinking water, site: kidney, lesion: lipoma, dosed 102 weeks, study length 102 weeks) was 584 mg/kg/day. For the same compound, the TD50 (rat, strain NBL/Cr, males, in drinking water, site: kidney, lesion: malignant mesenchymal tumor, dosed 102 weeks, study length 102 weeks) was 193 mg/kg/day, the TD50 (rat, strain NBL/Cr, males, in drinking water, site: kidney, lesion: several types, types named in the paper, dosed 102 weeks, study length 102 weeks) was 114 mg/kg/day and the TD50 (rat, strain Wistar W.74, females, in feed, site: any site (literature study), lesion: benign tumor, dosed 104 weeks, study length 105 weeks) was 44 mg/kg/day (inactive). For the same compound, the TD50 (rat, strain Wistar W.74, females, in feed, site: any site (literature study), lesion: malignant tumor, dosed 104 weeks, study length 105 weeks) was 124 mg/kg/day (inactive), the TD50 (rat, strain Wistar W.74, females, in feed, site: any site (literature study), lesion: several types, types named in the paper, dosed 104 weeks, study length 105 weeks) was 21.6 mg/kg/day (inactive) and the carcinogen call (rat, strain Wistar W.74, females, in feed, site: liver, lesion: hepatoma, dosed 104 weeks, study length 105 weeks) was “negative (inactive)”. For the same compound, the TD50 (rat, strain Wistar W.74, males, in feed, site: adrenal gland, lesion: pheochromocytoma, dosed 104 weeks, study length 105 weeks) was 1.33 mg/kg/day (inactive), the carcinogen call (rat, strain Wistar W.74, males, in feed, site: any site (literature study), lesion: benign tumor, dosed 104 weeks, study length 105 weeks) was “negative (inactive)” and the TD50 (rat, strain Wistar W.74, males, in feed, site: any site (literature study), lesion: malignant tumor, dosed 104 weeks, study length 105 weeks) was 47.4 mg/kg/day (inactive). For the same compound, the carcinogen call (rat, strain Wistar W.74, males, in feed, site: any site (literature study), lesion: several types, types named in the paper, dosed 104 weeks, study length 105 weeks) was “negative (inactive)”, the carcinogen call (rat, strain Wistar W.74, males, in feed, site: liver, lesion: hepatoma, dosed 104 weeks, study length 105 weeks) was “negative (inactive)” and the TD50 (rat, strain Wistar, females, inhaled, site: lung, lesion: adenocarcinoma, dosed 26 weeks, study length 126 weeks) was 0.206 mg/kg/day. For the same compound, the TD50 (rat, strain Wistar, females, inhaled, site: lung, lesion: adenocarcinoma, dosed 78 weeks, study length 134 weeks) was 0.0253 mg/kg/day, the TD50 (rat, strain Wistar, females, inhaled, site: lung, lesion: adenosquamous carcinoma, dosed 78 weeks, study length 134 weeks) was 0.106 mg/kg/day and the TD50 (rat, strain Wistar, females, inhaled, site: lung, lesion: alveolar/bronchiolar adenoma, dosed 78 weeks, study length 134 weeks) was 0.0495 mg/kg/day. The TD50 (rat, strain Wistar, females, inhaled, site: lung, lesion: several types, types named in the paper, dosed 26 weeks, study length 126 weeks) was 0.0645 mg/kg/day, the TD50 (rat, strain Wistar, females, inhaled, site: lung, lesion: several types, types named in the paper, dosed 78 weeks, study length 134 weeks) was 0.00971 mg/kg/day and the TD50 (rat, strain Wistar, females, inhaled, site: lung, lesion: squamous-cell tumor, dosed 26 weeks, study length 126 weeks) was 0.0998 mg/kg/day. For the same compound, the carcinogen call (rat, strain Wistar, males, in feed, site: all sites, lesion: lymphocytic leukemia, dosed 77 weeks, study length 77 weeks) was “positive”, the TD50 (rat, strain Wistar, males, in feed, site: prostate, lesion: adenoma, dosed 77 weeks, study length 77 weeks) was 56.9 mg/kg/day and the TD50 (rat, strain Wistar, males, in feed, site: testis, lesion: interstitial-cell tumor, benign, dosed 77 weeks, study length 77 weeks) was 31.6 mg/kg/day. For the same compound, the TD50 (rat, strain Wistar, males, inhaled, site: adrenal gland, lesion: pheochromocytoma, benign/malignant, dosed 78 weeks, study length 134 weeks) was 0.591 mg/kg/day, the TD50 (rat, strain Wistar, males, inhaled, site: lung, lesion: adenocarcinoma, dosed 26 weeks, study length 130 weeks) was 0.0294 mg/kg/day and the TD50 (rat, strain Wistar, males, inhaled, site: lung, lesion: adenocarcinoma, dosed 78 weeks, study length 130 weeks) was 0.00924 mg/kg/day. The TD50 (rat, strain Wistar, males, inhaled, site: lung, lesion: adenocarcinoma, dosed 78 weeks, study length 134 weeks) was 0.022 mg/kg/day, the TD50 (rat, strain Wistar, males, inhaled, site: lung, lesion: adenoma, dosed 78 weeks, study length 134 weeks) was 0.563 mg/kg/day and the TD50 (rat, strain Wistar, males, inhaled, site: lung, lesion: adenosquamous carcinoma, dosed 78 weeks, study length 130 weeks) was 0.165 mg/kg/day. It also gave a TD50 (rat, strain Wistar, males, inhaled, site: lung, lesion: alveolar/bronchiolar adenoma, dosed 26 weeks, study length 130 weeks) of 0.0521 mg/kg/day, a TD50 (rat, strain Wistar, males, inhaled, site: lung, lesion: alveolar/bronchiolar adenoma, dosed 78 weeks, study length 130 weeks) of 0.0804 mg/kg/day and a TD50 (rat, strain Wistar, males, inhaled, site: lung, lesion: carcinoma, dosed 78 weeks, study length 134 weeks) of 0.0127 mg/kg/day. It also gave a TD50 (rat, strain Wistar, males, inhaled, site: lung, lesion: epidermoid carcinoma, dosed 78 weeks, study length 134 weeks) of 0.0588 mg/kg/day, a TD50 (rat, strain Wistar, males, inhaled, site: lung, lesion: muco-epidermoid carcinoma, dosed 78 weeks, study length 134 weeks) of 0.315 mg/kg/day and a TD50 (rat, strain Wistar, males, inhaled, site: lung, lesion: several types, types named in the paper, dosed 26 weeks, study length 130 weeks) of 0.0106 mg/kg/day. For the same compound, the TD50 (rat, strain Wistar, males, inhaled, site: lung, lesion: several types, types named in the paper, dosed 78 weeks, study length 130 weeks) was 0.00611 mg/kg/day and the TD50 (rat, strain Wistar, males, inhaled, site: lung, lesion: squamous-cell tumor, dosed 26 weeks, study length 130 weeks) was 0.0521 mg/kg/day.
